Measurements as given in patent US11246873B2, “Directed differentiation of oligodendrocyte precursor cells to a myelinating cell fate” (The Scripps Research Institute, priority 2011, dated 2022).
“Also recorded” adds a separate entry of the source. Like-named read-outs stand apart in the source and are kept apart here.

Columns and labels:
[1] = tested on: dopamine D2 and D3 receptor; assay type: cell-based, rat
From the text: Error bars indicate standard deviations of 3 replicate measurements.
(§1) OPCs express mAChRs, predominantly subtypes M1, M3, and M5 (F. Ragheb et al., J Neurochem, 77, 1396 (2001)). […] Activation of M1 and M3 mAChRs is coupled to downstream signal transduction events through phospholipase C, which results in increased intracellular calcium concentrations (F. Ragheb et al., J Neurochem, 77, 1396 (2001)) (FIG. 23C). M2 and M4 mAChR activation inhibits adenylatecyclase, leading to decreased intracellular cAMP levels (C. C. Felder, FASEB J, 9, 619 (1995); M. Lopez-Ilasaca et al., Science, 275, 394 (1997)). […] Acetylcholine is a known regulator of OPC proliferation and, as such, muscarinic receptor subtypes represent a reasonable class of therapeutic targets for the modulation of OPC proliferation and differentiation (F. De Angelis et al., Dev Neurobiol, (2011)).

OPCs [2] = test: Gene expression profile of treated OPCs (Affymetrix rat genome arrays); assay type: cell-based; details: 6 days
Procedure: FIG. 15. Gene expression profile of OPCs differentiated to oligodendrocytes by benztropine treatment. […] OPCs from the same passage were also pelleted and frozen. Total RNA was isolated from the cells and gene expression analysis was performed using rat genome arrays from Affymetrix. […] Data are represented as fold change over DMSO treated controls.
(A) Increased expression (fold change) of mature oligodendrocyte genes in compound treated cells as compared to DMSO treated cells. (B) Decreased expression (fold change) of OPC genes in compound treated cells as compared to DMSO treated cells.
Benztropine-induced in vitro differentiation of rodent OPCS was confirmed by evaluating the transcription and translation levels of the oligodendrocyte specific markers MBP and myelin oligodendroglial glycoprotein (MOG) by RT-PCR and Western blot analysis, respectively (FIGS. 7B and 13). Additionally, in vitro OPC differentiation activity was assessed by immunofluorescent analysis using multiple markers specifically expressed in mature oligodendrocytes (including MBP, MOG, 2′,3′-cyclic-nucleotide 3′-phosphodiesterase (CNP), […] (GalC), oligodendrocyte marker O1 (O1) and oligodendrocyte marker O4 (O4)) following six days of compound treatment (FIG. 14).

OPCs [3] = test: qRT-PCR of cell cycle genes in OPCs; assay type: cell-based, rat; details: benztropine 1.5 uM
From the text: as §1

[4] = tested on: total splenocytes stimulated with CD3; test: T-cell activation (CD69, CD25) and proliferation (CFSE) in vitro; assay type: cell-based, mouse; details: versus DMSO
From the text: (A-F) Total splenocytes were isolated from mice and stimulated with CD3 and analyzed by flow cytometry for expression of T-cell activation markers CD69 and CD25 and T-cell proliferation using CFSE. (A) Unstimulated cells. (B) DMSO treated cells. […] The numbers represent percentage gated populations positive for the given marker.
(§2) The primary immunological processes involved in MS and EAE are T-cell mediated and the primary treatment paradigms are based on immunomodulatory drugs (T. Kopadze et al., Arch Neurol, 63, 1572 (2006); J. M. Greer et al., J Immunol, 180, 6402 (2007), M. P. Pender and J. M. Greer, curr Allergy Asthma Rep, 7, 285 (2007)).

splenocytes of EAE mice = details: mouse, in vivo, ip, 10 mg/kg
Procedure: (A-K) EAE was induced in mice by injecting PLP and pertussis toxin. […] Total splenocytes were isolated from the mice, stimulated with PMA and ionomycin, and analyzed for various populations of immune cells and cytokine secretion after 48 hours. Protein transport was blocked in cells used for cytokine analysis using Monoeiosin. […] Error bars indicate standard deviation of the mean within each group of 5 mice.
as §2

[5] = tested on: C57BL/6 mice fed cuprizone; details: for remyelination / myelin staining in the corpus callosum versus vehicle, week 2: 2 weeks after cuprizone withdrawal
From the text: Data is represented in terms of threshold bins on the grey scale (0-50) as described. Error bars represent standard deviations of at least 6 corpus callosum regions.
(B) Images were converted to a 256 shade grey scale. (C) The 256 shades of grey were divided into 5 bins of 50 shades each. Number of objects in the corpus callosum region in each bin were counted using Image-Pro plus.
By administering drugs at the time when a cuprizone-free diet is reintroduced, the efficacy of promyelinating agents can be examined by evaluating the relative kinetics of OPC dependent remyelination (T. Skripuletz et al., Am J Pathol, 172, 1053 (2008)). […] Drug or vehicle treated mice were sacrificed in groups of 5 weekly for 5 weeks, following drug treatment, and remyelination was quantitatively evaluated by staining the corpus callosum regions of harvested brains with LFB (FIG. 9A, B).

CN1[C@@H]2CC[C@H]1C[C@@H](OC(c1ccccc1)c1ccccc1)C2 [benztropine]
effect of quinpirole or haloperidol on benztropine induced differentiation / dopamine D2 and D3 receptor signaling [1]: neither the dopamine receptor antagonist haloperidol, nor the dopamine receptor agonist quinpirole affected; also recorded: no effect | expression of OPC genes and mature oligodendrocyte genes (OPCs [2]; versus DMSO): Downregulation of OPC specific genes required for proliferation; also recorded: downregulation of OPC genes and an upregulation of mature oligodendrocyte genes | global clustering of gene expression profiles (OPCs [2]; benztropine 2.3 uM): cluster with those obtained from T3 treated positive control cells; also recorded: clustering of benztropine treated samples with thyroid hormone treated samples | transcript levels of cyclin D1, cyclin D2, c-Fos, c-Jun (OPCs [3]): significantly decreased; also recorded: downregulation in cell cycle genes such as Cyclin D1, Cyclin D2, c-Fos, c-Jun | T-cell activation (CD69, CD25) [4]: no effect | T-cell proliferation (CFSE) [4]: no effect | number of total splenocytes, CD4+, CD8+, CD4+/CD44Hi and CD8+/CD44Hi T-cells (splenocytes of EAE mice): no effect | remyelination / myelin staining in the corpus callosum versus vehicle, week 2 ([5]; 10 mg/kg i.p.): significant increase in myelin staining in the corpus callosum | remyelination / myelin staining in the corpus callosum versus vehicle, week 2 ([5]; 10 mg/kg i.p., listed as benzatropine): increased remyelination | increase in myelin staining in the corpus callosum versus vehicle ([5]; 10 mg/kg i.p., 2 weeks after drug treatment): ~2 fold | myelin staining versus vehicle at later time points ([5]; 10 mg/kg i.p., up to 5 weeks): significant differences were not observed | toxicity to mature oligodendrocytes ([5]; mouse, in vivo): not toxic to mature oligodendrocytes
